From PubChem BioAssay (NCI)
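Tested at 5 concentrations; 48 h exposure; 96-well plates; endpoints linearly interpolated, else capped at highest concentration. TGI denotes the concentration required for complete inhibition of growth.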

Columns and labels:
Assay in all cases: NCI-60 cell line screen, 48 h
SK-MEL-5 melanoma = tested on: SK-MEL-5 melanoma
SF-539 CNS = tested on: SF-539 CNS
HS 578T breast = tested on: HS 578T breast
OVCAR-8 ovarian = tested on: OVCAR-8 ovarian
A498 renal = tested on: A498 renal
HT29 colon = tested on: HT29 colon
MDA-MB-231 breast = tested on: MDA-MB-231 breast
OVCAR-4 ovarian = tested on: OVCAR-4 ovarian
SW-620 colon = tested on: SW-620 colon
ACHN renal = tested on: ACHN renal
M14 melanoma = tested on: M14 melanoma
NCI-H460 lung = tested on: NCI-H460 lung
CAKI-1 renal = tested on: CAKI-1 renal
SK-MEL-2 melanoma = tested on: SK-MEL-2 melanoma
U251 CNS = tested on: U251 CNS
T-47D breast = tested on: T-47D breast
KM12 colon = tested on: KM12 colon
UO-31 renal = tested on: UO-31 renal
UACC-62 melanoma = tested on: UACC-62 melanoma
HCT-116 colon = tested on: HCT-116 colon
UACC-257 melanoma = tested on: UACC-257 melanoma
MCF7 breast = tested on: MCF7 breast
SK-OV-3 ovarian = tested on: SK-OV-3 ovarian
RXF 393 renal = tested on: RXF 393 renal
OVCAR-3 ovarian = tested on: OVCAR-3 ovarian
NCI-H226 lung = tested on: NCI-H226 lung
A549 NSCLC = tested on: A549 NSCLC
OVCAR-5 ovarian = tested on: OVCAR-5 ovarian
HCT-15 colon = tested on: HCT-15 colon
HL-60(TB) leukemia = tested on: HL-60(TB) leukemia
RPMI-8226 leukemia = tested on: RPMI-8226 leukemia
DU-145 prostate = tested on: DU-145 prostate
PC-3 prostate = tested on: PC-3 prostate
SNB-19 CNS = tested on: SNB-19 CNS
EKVX NSCLC = tested on: EKVX NSCLC
MDA-N = tested on: MDA-N
SF-268 CNS = tested on: SF-268 CNS
MDA-MB-435 = tested on: MDA-MB-435
NCI-H23 lung = tested on: NCI-H23 lung
786-0 renal = tested on: 786-0 renal
MOLT-4 leukemia = tested on: MOLT-4 leukemia
BT-549 breast = tested on: BT-549 breast
LOX IMVI melanoma = tested on: LOX IMVI melanoma
SF-295 CNS = tested on: SF-295 CNS
SN12C renal = tested on: SN12C renal
CCRF-CEM leukemia = tested on: CCRF-CEM leukemia
NCI-H522 lung = tested on: NCI-H522 lung
TK-10 renal = tested on: TK-10 renal
COLO 205 colon = tested on: COLO 205 colon
SR leukemia = tested on: SR leukemia
SNB-75 CNS = tested on: SNB-75 CNS
IGROV1 ovarian = tested on: IGROV1 ovarian
NCI/ADR-RES ovarian = tested on: NCI/ADR-RES ovarian
HOP-92 NSCLC = tested on: HOP-92 NSCLC
SK-MEL-28 melanoma = tested on: SK-MEL-28 melanoma
K-562 leukemia = tested on: K-562 leukemia
HOP-62 NSCLC = tested on: HOP-62 NSCLC
HCC-2998 colon = tested on: HCC-2998 colon
MALME-3M melanoma = tested on: MALME-3M melanoma

Measured: TGI

Cn1c(-c2ccc(/C=N\N3CCN(/N=C/c4ccc(-c5c[n+]6ccccc6n5C)cc4)CC3)cc2)c[n+]2ccccc12
42.8 µM: A498 renal
56.9 µM: HL-60(TB) leukemia
92.8 µM: HS 578T breast
84.6 µM: HOP-92 NSCLC
60.9 µM: RXF 393 renal
70.7 µM: 786-0 renal
75 µM: MDA-MB-231 breast
78.6 µM: SF-295 CNS
not listed: SK-MEL-28 melanoma | K-562 leukemia | HOP-62 NSCLC | HCC-2998 colon | MALME-3M melanoma
> 100 µM: all other assays above

NCc1ccc(C(=O)O)cc1
not listed: SF-539 CNS | HS 578T breast | SK-MEL-2 melanoma | MCF7 breast | SK-OV-3 ovarian | RPMI-8226 leukemia | CCRF-CEM leukemia | COLO 205 colon | SNB-75 CNS
> 100 µM: all other assays above
